Experimental data: ChEMBL document CHEMBL5528088, “Design and Synthesis of Cyclolipopeptide Mimics of Dysoxylactam A and Evaluation of the Reversing Potencies against P-Glycoprotein-Mediated Multidrug Resistance” (J Med Chem, 2024)
In brackets after ≈: the same amount, converted by molar mass. Activity calls are given as the source filed them. The rule behind the calls is not given here.

Experiments:
[1] = test system: NCI/ADR-RES; assay: Reversal fold, ratio of VNR IC50 to VNR IC50 in presence of test compound for reversal effect on P-gp-mediated multidrug resistance in human NCI/ADR-RES cells incubated for 72 hrs by SRB assay; type: functional
[2] = Inhibition of ADR uptake in human KBv200 cells assessed as ADR accumulation at 1 uM incubated for 10 mins by flow cytometry (reference value: 6.2 %); type: functional; parameters: scale not given: the % may be the effect or the level left
[3] = test system: KBv200; assay: Cytotoxicity against human KBv200 cells at 10 uM incubated for 72 hrs by SRB assay relative to control; type: functional
[4] = Inhibition of ADR efflux in human KBv200 cells assessed as ADR accumulation at 10 uM incubated for 3 hrs by flow cytometry (reference value: 25.7 %); type: functional; parameters: scale not given: the % may be the effect or the level left
[5] = test system: KBv200; assay: Reversal fold, ratio of VNR IC50 to VNR IC50 in presence of test compound for human KBv200 cells incubated for 72 hrs by SRB assay; type: functional
[6] = test system: KBv200; assay: Inhibition of ADR uptake in human KBv200 cells at 10 uM incubated for 10 mins by flow cytometry; type: functional, cell-based
[7] = target: T1, Broad substrate specificity ATP-binding cassette transporter ABCG2 (Homo sapiens, UniProt Q9UNQ0); assay: Inhibition of BCRP (unknown origin) expressed in HEK293 cells assessed as increase in mitoxantrone accumulation by flow cytometry; type: cell-based
T1 sequence (Q9UNQ0 whole entry): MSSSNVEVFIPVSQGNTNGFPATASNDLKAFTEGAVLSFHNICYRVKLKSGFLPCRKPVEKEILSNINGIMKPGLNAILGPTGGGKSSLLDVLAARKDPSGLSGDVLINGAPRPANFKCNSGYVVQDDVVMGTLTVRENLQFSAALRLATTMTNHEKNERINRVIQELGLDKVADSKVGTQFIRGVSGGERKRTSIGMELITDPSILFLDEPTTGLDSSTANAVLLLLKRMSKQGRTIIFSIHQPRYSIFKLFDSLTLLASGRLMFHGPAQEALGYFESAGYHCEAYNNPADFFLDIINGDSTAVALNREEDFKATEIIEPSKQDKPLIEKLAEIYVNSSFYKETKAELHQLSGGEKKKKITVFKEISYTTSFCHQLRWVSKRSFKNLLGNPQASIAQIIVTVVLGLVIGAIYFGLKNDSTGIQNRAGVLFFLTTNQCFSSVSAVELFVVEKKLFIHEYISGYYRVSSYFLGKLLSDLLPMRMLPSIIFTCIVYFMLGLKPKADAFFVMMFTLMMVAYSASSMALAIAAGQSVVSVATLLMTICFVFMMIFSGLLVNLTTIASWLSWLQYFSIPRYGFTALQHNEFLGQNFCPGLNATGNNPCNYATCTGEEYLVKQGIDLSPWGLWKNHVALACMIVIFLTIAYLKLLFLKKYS

[8] = test system: KBv200; assay: Reversal fold, ratio of PTX IC50 to PTX IC50 in presence of test compound for reversal effect on P-gp-mediated multidrug resistance in human KBv200 cells incubated for 72 hrs by SRB assay; type: functional
[9] = test system: KBv200; assay: Reversal fold, ratio of VNR IC50 to VNR IC50 in presence of test compound for reversal effect on P-gp-mediated multidrug resistance in human KBv200 cells incubated for 72 hrs by SRB assay; type: functional
[10] = test system: KBv200; assay: Inhibition of ADR efflux in human KBv200 cells incubated for 3 hrs by fluorescence microscopy; type: functional, cell-based
[11] = test system: KBv200; assay: Inhibition of cell proliferation in human KBv200 cells assessed as inhibition of VNR at 10 uM incubated for 72 hrs in presence of VNR by SRB assay relative to control; type: functional
[12] = Inhibition of ADR efflux in human KBv200 cells assessed as ADR accumulation at 1 uM incubated for 3 hrs by flow cytometry (reference value: 25.7 %); type: functional; parameters: scale not given: the % may be the effect or the level left
[13] = test system: NCI/ADR-RES; assay: Reversal fold, ratio of PTX IC50 to PTX IC50 in presence of test compound for reversal effect on P-gp-mediated multidrug resistance in human NCI/ADR-RES cells incubated for 72 hrs by SRB assay; type: functional
[14] = test system: NCI/ADR-RES; assay: Reversal fold, ratio of ADR IC50 to ADR IC50 in presence of test compound for reversal effect on P-gp-mediated multidrug resistance in human NCI/ADR-RES cells incubated for 72 hrs by SRB assay; type: functional
[15] = test system: KBv200; assay: Effect on P-gp level in human KBv200 cells incubated for 24 hrs by qRT-PCR analysis; type: functional, cell-based
[16] = target: Multidrug resistance-associated protein 1 (Homo sapiens, UniProt P33527); assay: Inhibition of MRP1 (unknown origin) expressed in HEK293 cells assessed as increase in mitoxantrone accumulation by flow cytometry; type: cell-based
[17] = test system: KBv200; assay: Reversal fold, ratio of ADR IC50 to ADR IC50 in presence of test compound for reversal effect on P-gp-mediated multidrug resistance in human KBv200 cells incubated for 72 hrs by SRB assay; type: functional
[18] = test system: KBv200; assay: Inhibition of ADR uptake in human KBv200 cells at 10 uM incubated for 10 mins by fluorescence microscopy; type: functional, cell-based
[19] = test system: KBv200; assay: Inhibition of calcein AM uptake in human KBv200 cells at 10 uM incubated for 10 mins by flow cytometry; type: functional, cell-based
[20] = test system: KBv200; assay: Inhibition of Rho-123 uptake in human KBv200 cells at 10 uM incubated for 10 mins by flow cytometry; type: functional, cell-based
[21] = Inhibition of ADR uptake in human KBv200 cells assessed as ADR accumulation at 10 uM incubated for 10 mins by flow cytometry (reference value: 6.2 %); type: functional; parameters: scale not given: the % may be the effect or the level left
[22] = test system: KBv200; assay: Antitumor activity against human KBv200 cells xenografted in Balb/cA nude mouse assessed as decrease in tumor size at 8 mg/kg, iv administered on day 0,4,8 and measured for 14 days; type: functional, organism-based; settings: time 14.0 day
[23] = test system: KBv200; assay: Inhibition of cell proliferation in human KBv200 cells incubated for 72 hrs by SRB assay; type: functional, cell-based; settings: KBv200, 72 h
[24] = test system: KBv200; assay: Inhibition of cell proliferation in human KBv200 cells at 10 uM incubated for 72 hrs by SRB assay relative to control; type: functional
[25] = test system: NCI/ADR-RES; assay: Reversal effect on P-gp-mediated multidrug resistance in human NCI/ADR-RES cells assessed as inhibition of cell proliferation incubated for 72 hrs by SRB assay; type: functional, cell-based
[26] = test system: KBv200; assay: Reversal effect on P-gp-mediated multidrug resistance in human KBv200 cells assessed as inhibition of cell proliferation incubated for 72 hrs by SRB assay; type: functional, cell-based; settings: KBv200, 72 h
[27] = Aqueous solubility of compound at neutral pH; type: physicochemical
[28] = test system: KBv200; assay: Antitumor activity against human KBv200 cells xenografted in Balb/cA nude mouse assessed as decrease in tumor weight at 75 mg/kg, ip administered upto day 8 and measured for 14 days in presence of VNR; type: functional, organism-based; settings: time 14.0 day
[29] = Tmax in Sprague-Dawley rat at 30 mg/kg, po measured for 24 hrs by LC-MS analysis; type: ADME, organism-based; settings: in vivo
[30] = Toxicity in Balb/cA nude mouse xenografted with human KBv200 cells assessed as animal mortality at 75 mg/kg, ip administered upto day 8 and measured for 14 days; type: organism-based; settings: in vivo, 336 h, time 14 day
[31] = MRT (infinity) in Sprague-Dawley rat at 1 mg/kg, iv measured for 24 hrs by LC-MS analysis; type: ADME, organism-based; settings: in vivo
[32] = Cmax in Sprague-Dawley rat at 30 mg/kg, po measured for 24 hrs by LC-MS analysis; type: ADME, organism-based; settings: in vivo
[33] = test system: KBv200; assay: Antitumor activity against human KBv200 cells xenografted in Balb/cA nude mouse assessed as decrease in tumor size at 75 mg/kg, ip administered upto day 8 and measured for 14 days; type: functional, organism-based; settings: time 14.0 day
[34] = AUClast in Sprague-Dawley rat at 1 mg/kg, iv measured for 24 hrs by LC-MS analysis; type: ADME, organism-based; settings: in vivo
[35] = Half life in Sprague-Dawley rat at 1 mg/kg, iv measured for 24 hrs by LC-MS analysis; type: ADME, organism-based; settings: in vivo
[36] = Half life in Sprague-Dawley rat at 30 mg/kg, po measured for 24 hrs by LC-MS analysis; type: ADME, organism-based; settings: in vivo
[37] = Toxicity in Balb/cA nude mouse xenografted with human KBv200 cells assessed as change in body weight at 75 mg/kg, ip administered upto day 8 and measured for 14 days; type: organism-based; settings: in vivo, 336 h, time 14 day
[38] = Volume of distribution at steady state in Sprague-Dawley rat at 1 mg/kg, iv measured for 24 hrs by LC-MS analysis; type: ADME, organism-based; settings: in vivo, read-out: Vdss
[39] = test system: NCI/ADR-RES; assay: Effect on P-gp level in human NCI/ADR-RES cells at 1 to 10 uM incubated for 24 hrs by Western blot analysis; type: functional, cell-based; settings: dose 1-10 µM
[40] = AUClast in Sprague-Dawley rat at 30 mg/kg, po measured for 24 hrs by LC-MS analysis; type: ADME, organism-based; settings: in vivo
[41] = Oral bioavailability in Sprague-Dawley rat at 30 mg/kg measured for 24 hrs by LC-MS analysis; type: ADME, organism-based; settings: in vivo
[42] = AUC (infinity) in Sprague-Dawley rat at 30 mg/kg, po measured for 24 hrs by LC-MS analysis; type: ADME, organism-based; settings: in vivo
[43] = MRT (infinity) in Sprague-Dawley rat at 30 mg/kg, po measured for 24 hrs by LC-MS analysis; type: ADME, organism-based; settings: in vivo
[44] = Lipophilicity, logD of compound at pH 7.4; type: physicochemical; settings: buffer
[45] = test system: KBv200; assay: Antitumor activity against human KBv200 cells xenografted in Balb/cA nude mouse assessed as decrease in tumor volume at 75 mg/kg, ip administered upto day 8 and measured for 14 days in presence of VNR; type: functional, organism-based; settings: time 14.0 day
[46] = test system: KBv200; assay: Effect on P-gp level in human KBv200 cells at 1 to 10 uM incubated for 24 hrs by Western blot analysis; type: functional, cell-based; settings: dose 1-10 µM
[47] = AUC (infinity) in Sprague-Dawley rat at 1 mg/kg, iv measured for 24 hrs by LC-MS analysis; type: ADME, organism-based; settings: in vivo

Chain of Multidrug resistance-associated protein 1 (P33527 whole entry): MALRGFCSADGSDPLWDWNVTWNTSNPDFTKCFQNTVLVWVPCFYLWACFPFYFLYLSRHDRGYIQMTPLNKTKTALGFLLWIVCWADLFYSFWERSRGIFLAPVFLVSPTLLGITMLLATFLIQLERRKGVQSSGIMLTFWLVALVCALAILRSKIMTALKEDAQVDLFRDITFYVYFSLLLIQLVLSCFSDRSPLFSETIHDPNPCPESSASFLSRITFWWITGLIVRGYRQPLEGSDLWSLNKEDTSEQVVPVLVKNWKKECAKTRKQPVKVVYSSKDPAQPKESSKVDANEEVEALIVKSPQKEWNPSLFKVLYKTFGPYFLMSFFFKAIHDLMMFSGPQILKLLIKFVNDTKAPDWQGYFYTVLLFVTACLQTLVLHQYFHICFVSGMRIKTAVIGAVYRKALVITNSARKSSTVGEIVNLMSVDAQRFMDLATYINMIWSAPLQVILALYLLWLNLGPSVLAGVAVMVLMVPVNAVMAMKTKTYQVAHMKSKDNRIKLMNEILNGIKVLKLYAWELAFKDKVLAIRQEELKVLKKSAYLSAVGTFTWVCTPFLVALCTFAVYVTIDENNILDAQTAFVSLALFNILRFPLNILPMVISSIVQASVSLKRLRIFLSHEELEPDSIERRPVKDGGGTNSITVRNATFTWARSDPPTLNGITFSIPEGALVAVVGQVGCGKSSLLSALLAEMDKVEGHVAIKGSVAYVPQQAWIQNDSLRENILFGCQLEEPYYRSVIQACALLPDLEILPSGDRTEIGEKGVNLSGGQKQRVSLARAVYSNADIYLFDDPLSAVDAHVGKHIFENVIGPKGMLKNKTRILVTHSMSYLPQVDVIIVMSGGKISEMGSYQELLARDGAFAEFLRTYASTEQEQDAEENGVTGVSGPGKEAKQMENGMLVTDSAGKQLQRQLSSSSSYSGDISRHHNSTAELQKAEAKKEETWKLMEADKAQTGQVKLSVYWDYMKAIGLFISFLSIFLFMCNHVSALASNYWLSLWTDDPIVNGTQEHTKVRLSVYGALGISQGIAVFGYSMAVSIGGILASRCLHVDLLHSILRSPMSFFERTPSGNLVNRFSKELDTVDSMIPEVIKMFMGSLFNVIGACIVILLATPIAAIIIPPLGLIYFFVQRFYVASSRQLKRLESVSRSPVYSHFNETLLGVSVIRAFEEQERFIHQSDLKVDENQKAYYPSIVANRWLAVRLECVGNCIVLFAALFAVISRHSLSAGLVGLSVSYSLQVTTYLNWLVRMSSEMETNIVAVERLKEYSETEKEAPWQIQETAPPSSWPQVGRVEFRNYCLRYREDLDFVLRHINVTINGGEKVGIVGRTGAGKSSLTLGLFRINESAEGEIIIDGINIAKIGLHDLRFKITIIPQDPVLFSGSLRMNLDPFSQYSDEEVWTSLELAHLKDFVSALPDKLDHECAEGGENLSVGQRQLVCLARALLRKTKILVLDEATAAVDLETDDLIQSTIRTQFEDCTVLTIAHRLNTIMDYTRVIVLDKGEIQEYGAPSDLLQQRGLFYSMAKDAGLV

CC[C@H](C)C1OC(=O)[C@H](C(C)C)NC(=O)CCCCCCC[C@H](O)[C@@H](C)C[C@@H]1C (stereo partly drawn)
Ratio IC50 [1]: 65.3 | Activity [2]: 7.4% | Activity [3]: 9.7% | Activity [4]: 90.6% | Ratio IC50 [5]: 85 | inhibition [6]: inactive | inhibition (INH) [7]: Active | Ratio IC50 [8]: 49.6 | Ratio IC50 [9]: 64 | inhibition [10]: Active | inhibition at 10 µM [11]: 99.5% | Activity [12]: 29% | Ratio IC50 [13]: 109.2 | Ratio IC50 [14]: 23.9 | Activity [15]: inactive | inhibition (INH) [16]: Active | Ratio IC50 [17]: 12.4 | inhibition [18]: inactive | inhibition [19]: Active | inhibition [20]: Active | Activity [21]: 91.7%

CCC1=C[C@@H]2CN(C1)Cc1c([nH]c3ccccc13)[C@@](C(=O)OC)(c1cc3c(cc1OC)N(C)[C@H]1[C@@](O)(C(=O)OC)[C@H](OC(C)=O)[C@]4(CC)C=CCN5CC[C@]31[C@@H]54)C2 [VINORELBINE]
Activity [22]: Active | IC50 [23]: 298 nM | inhibition at 10 µM [24]: 4.9% | IC50 [25]: 3720 nM | IC50 [26]: 205 nM

CC(C)[C@@H]1NC(=O)CCCCCCCCCCCC(=O)N[C@@H](Cc2ccccc2)COC1=O
solubility [27]: 0.64 µg/mL (≈ 1.4 µM) | Ratio IC50 [1]: 133.4 | Activity [2]: 6.6% | Activity [28]: Active | Tmax [29]: 0.25 h | Activity [30]: Non-Toxic | Activity [3]: 2.7% | Activity [4]: 88.6% | Ratio IC50 [5]: 124 | inhibition [6]: inactive | inhibition (INH) [7]: Active | MRT inf [31]: 0.75 h | Ratio IC50 [8]: 49.6 | Cmax [32]: 34.4 ng/mL | Activity [33]: Active | Ratio IC50 [9]: 102.4 | inhibition [10]: Active | AUC(0-t) at 24 h [34]: 1260 ng·h/mL | half-life [35]: 1.09 h | inhibition at 10 µM [11]: 96.9% | Activity [12]: 33.8% | Ratio IC50 [13]: 159.9 | half-life [36]: 2.38 h | Activity [37]: Non-Toxic | Ratio IC50 [14]: 33.9 | Vd [38]: 1.53 L/kg | Activity [39]: inactive | AUC(0-t) at 24 h [40]: 32.3 ng·h/mL | Activity [15]: inactive | inhibition (INH) [16]: Active | Ratio IC50 [17]: 12.1 | inhibition [18]: inactive | bioavailability [41]: 0.09% | AUC(0-inf) [42]: 43.4 ng·h/mL | MRT inf [43]: 3.11 h | logD [44]: 5 | Activity [45]: Active | inhibition [19]: Active | Activity [46]: inactive | inhibition [20]: Active | Activity [21]: 86.4% | AUC [47]: 1263 ng·h/mL
